# Source: patent US8546338B2, “Self-assembling hydrogels based on dicephalic peptide amphiphiles” (Johnson & Johnson Consumer Companies, Inc., priority 2010, dated 2013)
# Assays:
# [1] = Titration of DPA acid groups with calcium ions; assay type: physicochemical; settings: calcium titrated down from 16 to 1 equivalent by halving
# Excerpt: The […] (SEQ ID NO: 3) DPA was titrated with calcium ions to determine the number of acid groups that required ion complexation in order for gelation to occur. Theoretically, there are eight acid groups (four per head group) that could be involved in the gelation process (FIG. 4).
# [2] = Gelation experiments: inversion test for self-supporting hydrogels; assay type: physicochemical
# Description: Inversion tests were performed to determine qualitatively under which conditions the various DPAs formed self-supporting hydrogels. The various types of DPAs were tested by dissolving them in ultrapure water (>18 MΩ resistivity) at double the desired final concentration followed by mixing in a 1:1 ratio with different liquid mediums. Gelation was deemed to have occurred if the gel supported its own weight upon inverting the vial (FIG. 3A and FIG. 3B). Gelation was tested at final concentrations of 1, 2 and 4 weight percent. We tested phosphate buffered saline (PBS), and Dulbecco's modified eagle media (DMEM) as liquid medium. Typical scale is 100 μl each of DPA solution in water and mixing medium but other scales have been tested. Finally, if no spontaneous gelation occurs, 10 μl of 100 mg/cc calcium chloride solution was added to induce gelation.
smiles,measurement,setting,value
CCCCCCCCCCCCCCCC(=O)NC(C(=O)N[C@H](C(=O)N[C@@H](C)C(=O)N[C@H](C(=O)N[C@@H](C)C(=O)N[C@H](C(=O)N[C@@H](C)C(=O)N[C@@H](CCC(=O)O)C(=O)N[C@@H](CCC(=O)O)C(=O)N[C@@H](CCC(=O)O)C(=O)O)C(C)C)C(C)C)C(C)C)C(=O)N[C@H](C(=O)N[C@@H](C)C(=O)N[C@H](C(=O)N[C@@H](C)C(=O)N[C@H](C(=O)N[C@@H](C)C(=O)N[C@@H](CCC(=O)O)C(=O)N[C@@H](CCC(=O)O)C(=O)N[C@@H](CCC(=O)O)C(=O)O)C(C)C)C(C)C)C(C)C [Val-Ala-Val-Ala-Val-Ala-Glu-Glu-Glu],Transition point between stable gel formation and no or weak gel formation,[1],between two and one equivalent of calcium
same,"Gelation (self-supporting gel on inversion), Calcium added",[2]; DMEM plus 10 μl of 100 mg/cc calcium chloride solution,Yes
same,"Concentration at which gel forms, Calcium added",[2]; DMEM with calcium chloride added,2 wt %
same,"Gelation (self-supporting gel on inversion), DMEM","[2]; DPA solution in water mixed 1:1 with DMEM, no calcium added",No
same,Minimal concentration at which gel formed,[2]; in DMEM with calcium added,2 weight percent
same,"Gelation (self-supporting gel on inversion), Water","[2]; in water, final concentrations 1, 2 and 4 weight percent tested",No
